In patent publication US9243002B2, “Tetracyclic heterocycle compounds and methods of use thereof for the treatment of hepatitis C” (priority 2013, dated 2016):
pIC50: −log10 of the molar value. Read-outs that look alike come from different tables or passages of the source.

How the values were obtained:
HCV genotype 1b replicon = test: HCV replicon assay, genotype 1b (cell ELISA for NS3/4A); format: cell-based, hepatitis C virus; details: for IC50: Hepatitis C virus, 96 h, read-out: 1b IC50 (nM), genotype 1b replicon cells, 96 hours incubation, NS3/4A ELISA; for pIC50: read-out: 1b IC50, genotype 1b replicon cells, 96 hours incubation, NS3/4A ELISA
Description: (§1) Measurement of inhibition by compounds was performed using the HCV replicon system. Several different replicons encoding different HCV genotypes or mutations were used. In addition, potency measurements were made using different formats of the replicon assay, including different ways of measurements and different plating formats. See Jan M. Vrolijk et al., A replicons-based bioassay for the measurement of interferons in patients with chronic hepatitis C, 110 J. VIROLOGICAL METHODS 201 (2003); Steven S. Carroll et al., Inhibition of Hepatitis C Virus RNA Replication by 2′-Modified Nucleoside Analogs, 278 (14) J. BIOLOGICAL CHEMISTRY 11979 (2003). However, the underlying principles are common to all of these determinations, and are outlined below.
(§2) Stable neomycin phosphotransferase encoding replicons-harboring cell lines were used, so all cell lines were maintained under G418 selection prior to the assay. Potency was deteremined using a cell ELISA assay with an antibody to the replicons encoded NS3/4a protease. See Caterina Trozzi et al., In Vitro Selection and Characterization of Hepatitis C Virus Serine Protease Variants Resistant to an Active-Site Peptide Inhibitor, 77 (6) J. Virol. 3669 (2003). To initiate an assay, replicon cells were plated in the presence of a dilution series of test compound in the absence of G418. Typically, the assays were performed in a 96-well plate formate for manual operation, or a 384-well plate format for automated assay. Replicon cells and compound were incubated for 96 hours. At the end of the assay, cells were washed free of media and compound, and the cells were then lysed. RNA was quantified indirectly through detection of replicon-encoded NS3/4A protein levels, through an ELISA-based assay with an antibody specific for NS3/4A. IC50 determinations were calculated as a percentage of a DMSO control by fitting the data to a four-parameter fit function and the data obtained for genotypes 1a and 1b using this method is provided in the table below.

HCV genotype 1a replicon = test: HCV replicon assay, genotype 1a (cell ELISA for NS3/4A); format: cell-based, hepatitis C virus; details: for IC50: Hepatitis C virus, 96 h, read-out: 1a IC50 (nM), genotype 1a replicon cells, 96 hours incubation, NS3/4A ELISA; for pIC50: read-out: 1a IC50, genotype 1a replicon cells, 96 hours incubation, NS3/4A ELISA
Description: as §1, §2

Structure (SMILES)	IC50 (HCV genotype 1b replicon)	IC50 (HCV genotype 1a replicon)	pIC50 (HCV genotype 1a replicon)	pIC50 (HCV genotype 1b replicon)
CNC(=O)c1c(-c2ccc(F)cc2F)oc2cc(N(C)S(C)(=O)=O)c(-c3ccc4c(n3)-c3cc5c(F)cccc5n3CC4)cc12 [Example 30, 2-(2,4-difluorophenyl)-5-(11-fluoro-5,6-dihydroindolo[1,2-h][1,7]naphthyridin-2-yl)-N-methyl-6-(N-methylmethylsulfonamido)benzofuran-3-carboxamide]	3.81 nM	2.49 nM		
CNC(=O)c1c(-c2ccc(F)cc2)oc2cc(N(C)S(C)(=O)=O)c(-c3ncc4c(n3)-c3cc5c(F)cccc5n3CC4)cc12 [Example 63, 5-(11-fluoro-5,6-dihydropyrimido[4′,5′:3,4]pyrido[1,2-a]indol-2-yl)-2-(4-fluorophenyl)-N-methyl-6-(N-methylmethylsulfonamido)benzofuran-3-carboxamide]	3.28 nM	4.34 nM		
CNC(=O)c1c(-c2ccc(F)cc2)oc2cc(N(C)S(C)(=O)=O)c(-c3cc4c(cn3)CC(C)n3c-4cc4c(F)cccc43)cc12 (single isomer, unassigned) [Example 41, (R or S)-5-(11-fluoro-6-methyl-5,6-dihydroindolo[2,1-a][2,6]naphthyridin-2-yl)-2-(4-fluorophenyl)-N-methyl-6-(N-methylmethylsulfonamido)benzofuran-3-carboxamide]	6.33 nM		7.72	
CNC(=O)c1c(-c2ccc(F)cc2)oc2cc(N(C)S(C)(=O)=O)c(-c3ccc4c(n3)-c3cc5c(F)cccc5n3C(=O)CC4)cc12 [Example 74, 5-(12-fluoro-7-oxo-6,7-dihydro-5H-pyrido[2′,3′:3,4]azepino[1,2-a]indol-2-yl)-2-(4-fluorophenyl)-N-methyl-6-(N-methylmethylsulfonamido)benzofuran-3-carboxamide]	11.4 nM	8.2 nM		
CNC(=O)c1c(-c2ccc(F)cc2F)oc2cc(N(C)S(C)(=O)=O)c(-c3ccc4c(n3)-c3cc5c(F)cccc5n3C(CN3CC(F)C3)C4)cc12 (centres unmarked) [Example 95]	7.53 nM	8.91 nM		
CNC(=O)c1c(-c2ccc(C)nc2)oc2cc(N(C)S(C)(=O)=O)c(-c3ccc4c(n3)-c3cc5c(F)cccc5n3C(CCN3CC(F)C3)C4)cc12 (centres unmarked) [Example 67]			7.90	7.79
CNC(=O)c1c(-c2ccc(F)cc2)oc2cc(N(C)S(C)(=O)=O)c(-c3ccc4c(n3)-c3cc5c(F)cccc5n3C(CO)C4)cc12 (centres unmarked) [Example 52]	2.32 nM		8.48	
CNC(=O)c1c(-c2ccc(F)cc2F)oc2cc(N(C)S(C)(=O)=O)c(-c3ccc4ccn5c6cccc(F)c6cc5c4n3)cc12 [Example 84]	6.41 nM	4.28 nM		
CNC(=O)c1c(-c2ccc(F)cc2)oc2cc(N(C)S(C)(=O)=O)c(-c3ccc4ccn5c6cccc(F)c6cc5c4n3)cc12 [Example 82, 5-(11-fluoroindolo[1,2-h][1,7]naphthyridin-2-yl)-2-(4-fluorophenyl)-N-methyl-6-(N-methylmethylsulfonamido)benzofuran-3-carboxamide]	5.54 nM	2.88 nM		
CNC(=O)c1c(-c2cnc(N3CCCC3)s2)oc2cc(N(C)S(C)(=O)=O)c(-c3ccc4c(n3)-c3cc5c(F)cccc5n3CC4)cc12 [Example 22]	163 nM	1450 nM		
CNC(=O)c1c(-c2ccc(OC3CC3)nc2)oc2cc(N(C)S(C)(=O)=O)c(-c3ccc4c(n3)-c3cc5c(F)cccc5n3CC4)cc12 [Example 5]	2.3 nM	3.86 nM		
CNC(=O)c1c(-c2ccc(C3CC3)nc2)oc2cc(N(C)S(C)(=O)=O)c(-c3ccc4c(n3)-c3cc5c(F)cccc5n3CC4)cc12 [Example 6]	10.2 nM	16.8 nM		
CNC(=O)c1c(-c2ccc(F)cc2)oc2cc(N(C)S(C)(=O)=O)c(-c3cc4c(cn3)C(C)Cn3c-4cc4c(F)cccc43)cc12 (single isomer, unassigned) [Example 61, (S or R)-5-(11-fluoro-5-methyl-5,6-dihydroindolo[2,1-a][2,6]naphthyridin-2-yl)-2-(4-fluorophenyl)-N-methyl-6-(N-methylmethylsulfonamido)benzofuran-3-carboxamide]			8.64	8.11
CNC(=O)c1c(-c2ccc(F)cc2)oc2cc(N(C)S(C)(=O)=O)c(-c3ccc4c(n3)-c3cc5c(F)cccc5n3C(CO)C4)cc12 (centres unmarked) [Example 54]			8.81	8.65
CNC(=O)c1c(-n2ccc(C)cc2=O)oc2cc(N(C)S(C)(=O)=O)c(-c3ccc4c(n3)-c3cc5c(F)cccc5n3CC4)cc12 [Example 32, 5-(11-fluoro-5,6-dihydroindolo[1,2-h][1,7]naphthyridin-2-yl)-N-methyl-2-(4-methyl-2-oxopyridin-1 (2H)-yl)-6-(N-methylmethylsulfonamido)benzofuran-3-carboxamide]	3.95 nM	10.6 nM		
CNC(=O)c1c(-c2ccc(F)cc2)oc2cc(N(C)S(C)(=O)=O)c(-c3cc4c(cn3)CCn3c-4cc4c(F)cccc43)cc12 [Example 39, 5-(11-fluoro-5,6-dihydroindolo[2,1-a][2,6]naphthyridin-2-yl)-2-(4-fluorophenyl)-N-methyl-6-(N-methylmethylsulfonamido)benzofuran-3-carboxamide]	2.83 nM	2.71 nM		
CNC(=O)c1c(-c2ccc(F)cc2Cl)oc2cc(N(C)S(C)(=O)=O)c(-c3ccc4c(n3)-c3cc5c(F)cccc5n3CC4)cc12 [Example 12]	10.6 nM	4.59 nM		
CNC(=O)c1c(-c2cncs2)oc2cc(N(C)S(C)(=O)=O)c(-c3ccc4c(n3)-c3cc5c(F)cccc5n3CC4)cc12 [Example 37]	14.2 nM	9.83 nM		
CNC(=O)c1c(-c2ccc(F)cc2)oc2nc(N(C)S(C)(=O)=O)c(-c3ccc4c(n3)-c3cc5c(F)cccc5n3CC4)cc12 [Example 45, 5-(11-fluoro-5,6-dihydroindolo[1,2-h][1,7]naphthyridin-2-yl)-2-(4-fluorophenyl)-N-methyl-6-(N-methylmethylsulfonamido)furo[2,3-b]pyridine-3-carboxamide]	8.72 nM	4.29 nM		
CNC(=O)c1c(-c2ccc(F)cc2)oc2cc(N(C)S(C)(=O)=O)c(-c3ccc4c(n3)-c3cc5c(F)cccc5n3CC4)cc12 [Example 85, 5-(11-fluoro-5,6-dihydroindolo[1,2-h][1,7]naphthyridin-2-yl)-2-(4-fluorophenyl)-N-methyl-6-(N-methylmethylsulfonamido)benzofuran-3-carboxamide]	3.29 nM	2.99 nM		
CNC(=O)c1c(-c2ccc(C)nc2)oc2cc(N(C)S(C)(=O)=O)c(-c3cc4c(cn3)CCn3c-4cc4c(F)cccc43)cc12 [Example 40]	17.1 nM	16.6 nM		
CNC(=O)c1c(-c2ccc(F)cc2)oc2cc(N(C)S(C)(=O)=O)c(-c3ccc4c(n3)-c3cc5c(F)cccc5n3CC=C4)cc12 [Example 98, 5-(12-fluoro-7H-pyrido[2′,3′:3,4]azepino[1,2-a]indol-2-yl)-2-(4-fluorophenyl)-N-methyl-6-(N-methylmethylsulfonamido)benzofuran-3-carboxamide]	8.65 nM	4.17 nM		
CNC(=O)c1c(-c2ccn[nH]2)oc2cc(N(C)S(C)(=O)=O)c(-c3ccc4c(n3)-c3cc5c(F)cccc5n3CC4)cc12 [Example 25]	99.4 nM	287 nM		
CNC(=O)c1c(-c2cnn(-c3ccccc3)c2)oc2cc(N(C)S(C)(=O)=O)c(-c3ccc4c(n3)-c3cc5c(F)cccc5n3CC4)cc12 [Example 18]	296 nM	5480 nM		
CNC(=O)c1c(-c2cnn(CCO)c2)oc2cc(N(C)S(C)(=O)=O)c(-c3ccc4c(n3)-c3cc5c(F)cccc5n3CC4)cc12 [Example 23]	83.2 nM	212 nM		
CNC(=O)c1c(-c2c(C)n[nH]c2C)oc2cc(N(C)S(C)(=O)=O)c(-c3ccc4c(n3)-c3cc5c(F)cccc5n3CC4)cc12 [Example 26]	84.4 nM	69.3 nM		
CNC(=O)c1c(-c2ccc(F)cc2)oc2cc(N(C)S(C)(=O)=O)c(-c3ccc4c(n3)-c3cc5c(F)cccc5n3CCC4)cc12 [Example 72, 5-(12-fluoro-6,7-dihydro-5H-pyrido[2′,3′:3,4]azepino[1,2-a]indol-2-yl)-2-(4-fluorophenyl)-N-methyl-6-(N-methylmethylsulfonamido)benzofuran-3-carboxamide]	4.29 nM	3.71 nM		
CNC(=O)c1c(-c2ccc(F)cc2)oc2cc(N(C)S(C)(=O)=O)c(-c3cc4c(cn3)C(C)Cn3c-4cc4c(F)cccc43)cc12 (single isomer, unassigned) [Example 60, (R or S)-5-(11-fluoro-5-methyl-5,6-dihydroindolo[2,1-a][2,6]naphthyridin-2-yl)-2-(4-fluorophenyl)-N-methyl-6-(N-methylmethylsulfonamido)benzofuran-3-carboxamide]	10.1 nM		8.30	
